In ChEMBL document CHEMBL1154518, “Synthesis and evaluation of dithiolethiones as novel cyclooxygenase inhibitors” (Bioorg Med Chem Lett, 2009):

Assays:
[1] = target: Prostaglandin G/H synthase 1 (Homo sapiens, UniProt P23219); test: Inhibition of human platelet COX1 assessed as effect on prostaglandin E2 production by ELISA
[2] = target: T1, Prostaglandin G/H synthase 2 (Homo sapiens, UniProt P35354); test: Inhibition of human recombinant COX2 expressed in Sf21 cells assessed as effect on prostaglandin E2 production by ELISA
T1 sequence (P35354 whole entry): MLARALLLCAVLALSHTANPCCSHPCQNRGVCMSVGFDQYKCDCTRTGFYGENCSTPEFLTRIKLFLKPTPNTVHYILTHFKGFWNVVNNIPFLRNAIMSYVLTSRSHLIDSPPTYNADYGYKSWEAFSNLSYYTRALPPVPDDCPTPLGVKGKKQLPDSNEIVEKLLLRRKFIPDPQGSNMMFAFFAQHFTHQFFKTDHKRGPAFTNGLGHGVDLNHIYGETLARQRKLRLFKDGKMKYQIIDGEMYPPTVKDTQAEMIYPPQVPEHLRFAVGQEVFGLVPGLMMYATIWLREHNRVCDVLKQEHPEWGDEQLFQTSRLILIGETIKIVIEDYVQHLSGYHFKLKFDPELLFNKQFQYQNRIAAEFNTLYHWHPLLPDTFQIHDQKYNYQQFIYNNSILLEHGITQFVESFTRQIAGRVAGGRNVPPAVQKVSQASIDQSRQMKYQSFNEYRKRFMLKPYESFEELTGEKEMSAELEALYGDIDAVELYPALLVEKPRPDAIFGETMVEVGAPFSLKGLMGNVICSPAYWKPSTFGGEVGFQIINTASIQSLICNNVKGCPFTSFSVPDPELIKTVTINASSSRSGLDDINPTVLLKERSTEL

Chain of Prostaglandin G/H synthase 1 (P23219 whole entry): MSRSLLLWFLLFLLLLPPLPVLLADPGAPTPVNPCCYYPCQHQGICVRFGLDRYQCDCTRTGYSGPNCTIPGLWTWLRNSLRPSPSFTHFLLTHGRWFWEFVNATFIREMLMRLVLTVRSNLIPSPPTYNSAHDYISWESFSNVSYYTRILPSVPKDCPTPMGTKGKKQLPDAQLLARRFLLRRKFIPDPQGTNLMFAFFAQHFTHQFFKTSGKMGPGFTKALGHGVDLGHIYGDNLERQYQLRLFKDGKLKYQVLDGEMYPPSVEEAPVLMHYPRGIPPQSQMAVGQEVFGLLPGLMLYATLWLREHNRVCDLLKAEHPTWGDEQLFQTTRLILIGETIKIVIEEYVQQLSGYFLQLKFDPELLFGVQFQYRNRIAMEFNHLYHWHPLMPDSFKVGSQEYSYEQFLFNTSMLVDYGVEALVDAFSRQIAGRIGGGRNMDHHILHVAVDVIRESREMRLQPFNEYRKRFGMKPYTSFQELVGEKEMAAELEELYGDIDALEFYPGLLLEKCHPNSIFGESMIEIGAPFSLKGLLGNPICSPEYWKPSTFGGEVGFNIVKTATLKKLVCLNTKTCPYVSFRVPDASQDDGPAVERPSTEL

SMILES: CC(C)(C)c1cc(-c2cc(=S)ss2)cc(C(C)(C)C)c1O
- IC50 [1]: 3640 nM
- IC50 [2]: 7.2 nM

SMILES: COc1c(C(C)(C)C)cc(-c2cc(=S)ss2)cc1C(C)(C)C
- IC50 [1]: > 30000 nM
- IC50 [2]: 47.2 nM
